This note sets out measurements from ChEMBL document CHEMBL3632526, “Novel, potent, selective and cellular active ABC type PTP1B inhibitors containing (methanesulfonyl-phenyl-amino)-acetic acid methyl ester phosphotyrosine mimetic” (Bioorg Med Chem, 2015).

Assay [1] has as its target T1, Tyrosine-protein phosphatase non-receptor type 1 (Homo sapiens, UniProt P18031).
T1 sequence (P18031 whole entry): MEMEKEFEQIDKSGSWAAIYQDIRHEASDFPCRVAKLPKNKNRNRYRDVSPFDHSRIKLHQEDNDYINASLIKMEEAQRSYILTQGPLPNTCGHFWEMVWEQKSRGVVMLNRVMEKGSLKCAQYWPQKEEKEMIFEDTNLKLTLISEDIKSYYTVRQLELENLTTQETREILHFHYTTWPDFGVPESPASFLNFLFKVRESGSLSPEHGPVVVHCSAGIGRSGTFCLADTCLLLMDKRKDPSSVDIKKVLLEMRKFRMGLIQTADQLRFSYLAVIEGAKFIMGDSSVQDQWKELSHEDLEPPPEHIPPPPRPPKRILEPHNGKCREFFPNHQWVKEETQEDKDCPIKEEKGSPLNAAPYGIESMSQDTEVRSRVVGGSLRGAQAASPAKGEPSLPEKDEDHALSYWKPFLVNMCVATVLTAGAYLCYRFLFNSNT
The assay is described as follows: Inhibition of recombinant PTP1B (unknown origin) assessed as hydrolysis of pNPP to pNP after 30 mins.

The target in assay [2] is T2, Tyrosine-protein phosphatase non-receptor type 1 (Homo sapiens) (UniProt P18031).
T2 sequence (whole entry): T1 sequence (P18031 whole entry)
The assay is described as follows: Inhibition of recombinant PTP1B (unknown origin) assessed as hydrolysis of pNPP to pNP at 25 uM after 30 mins.

Assay [3] addresses T3, Tyrosine-protein phosphatase non-receptor type 11 (Homo sapiens) (UniProt Q06124).
T3 sequence (whole entry): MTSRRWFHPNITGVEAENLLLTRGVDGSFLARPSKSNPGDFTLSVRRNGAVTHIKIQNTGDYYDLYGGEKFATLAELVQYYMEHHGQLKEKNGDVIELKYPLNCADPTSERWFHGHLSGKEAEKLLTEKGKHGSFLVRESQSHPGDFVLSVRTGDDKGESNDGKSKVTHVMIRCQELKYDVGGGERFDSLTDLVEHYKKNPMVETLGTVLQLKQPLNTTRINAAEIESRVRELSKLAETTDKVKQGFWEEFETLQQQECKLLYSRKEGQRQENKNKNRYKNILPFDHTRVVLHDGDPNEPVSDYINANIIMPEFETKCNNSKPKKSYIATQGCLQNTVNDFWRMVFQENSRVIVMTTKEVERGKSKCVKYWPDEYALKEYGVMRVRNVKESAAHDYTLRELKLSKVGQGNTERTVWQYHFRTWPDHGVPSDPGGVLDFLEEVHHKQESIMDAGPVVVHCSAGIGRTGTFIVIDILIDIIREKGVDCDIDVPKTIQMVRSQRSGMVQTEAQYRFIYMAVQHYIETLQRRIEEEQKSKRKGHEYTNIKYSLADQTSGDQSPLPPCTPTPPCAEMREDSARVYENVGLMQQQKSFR
The assay is described as follows: Inhibition of SHP2 (unknown origin) assessed as hydrolysis of pNPP to pNP at 25 uM after 30 mins.

Assay [4] addresses T4, Tyrosine-protein phosphatase non-receptor type 6 (Homo sapiens, UniProt P29350). In words: Inhibition of SHP1 (unknown origin) assessed as hydrolysis of pNPP to pNP after 30 mins.
For assay [5], the target named is T5, Tyrosine-protein phosphatase non-receptor type 2 (Homo sapiens, UniProt P17706).
T5 sequence (P17706 whole entry): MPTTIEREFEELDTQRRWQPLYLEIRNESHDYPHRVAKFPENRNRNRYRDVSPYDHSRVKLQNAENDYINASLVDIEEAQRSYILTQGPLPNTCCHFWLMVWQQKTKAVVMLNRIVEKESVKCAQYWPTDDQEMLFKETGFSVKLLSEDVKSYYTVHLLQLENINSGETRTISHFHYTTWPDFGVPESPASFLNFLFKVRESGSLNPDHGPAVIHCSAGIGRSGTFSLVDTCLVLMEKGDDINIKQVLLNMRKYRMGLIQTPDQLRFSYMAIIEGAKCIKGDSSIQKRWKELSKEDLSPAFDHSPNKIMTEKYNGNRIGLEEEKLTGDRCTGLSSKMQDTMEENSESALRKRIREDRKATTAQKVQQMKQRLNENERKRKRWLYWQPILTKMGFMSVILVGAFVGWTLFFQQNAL
In words: Inhibition of TCPTP (unknown origin) assessed as hydrolysis of pNPP to pNP after 30 mins.

The target in assay [6] is Receptor-type tyrosine-protein phosphatase F (Homo sapiens) (UniProt P10586). In words: Inhibition of LAR (unknown origin) assessed as hydrolysis of pNPP to pNP at 25 uM after 30 mins.
Chain of Receptor-type tyrosine-protein phosphatase F (Homo sapiens) (P10586 whole entry): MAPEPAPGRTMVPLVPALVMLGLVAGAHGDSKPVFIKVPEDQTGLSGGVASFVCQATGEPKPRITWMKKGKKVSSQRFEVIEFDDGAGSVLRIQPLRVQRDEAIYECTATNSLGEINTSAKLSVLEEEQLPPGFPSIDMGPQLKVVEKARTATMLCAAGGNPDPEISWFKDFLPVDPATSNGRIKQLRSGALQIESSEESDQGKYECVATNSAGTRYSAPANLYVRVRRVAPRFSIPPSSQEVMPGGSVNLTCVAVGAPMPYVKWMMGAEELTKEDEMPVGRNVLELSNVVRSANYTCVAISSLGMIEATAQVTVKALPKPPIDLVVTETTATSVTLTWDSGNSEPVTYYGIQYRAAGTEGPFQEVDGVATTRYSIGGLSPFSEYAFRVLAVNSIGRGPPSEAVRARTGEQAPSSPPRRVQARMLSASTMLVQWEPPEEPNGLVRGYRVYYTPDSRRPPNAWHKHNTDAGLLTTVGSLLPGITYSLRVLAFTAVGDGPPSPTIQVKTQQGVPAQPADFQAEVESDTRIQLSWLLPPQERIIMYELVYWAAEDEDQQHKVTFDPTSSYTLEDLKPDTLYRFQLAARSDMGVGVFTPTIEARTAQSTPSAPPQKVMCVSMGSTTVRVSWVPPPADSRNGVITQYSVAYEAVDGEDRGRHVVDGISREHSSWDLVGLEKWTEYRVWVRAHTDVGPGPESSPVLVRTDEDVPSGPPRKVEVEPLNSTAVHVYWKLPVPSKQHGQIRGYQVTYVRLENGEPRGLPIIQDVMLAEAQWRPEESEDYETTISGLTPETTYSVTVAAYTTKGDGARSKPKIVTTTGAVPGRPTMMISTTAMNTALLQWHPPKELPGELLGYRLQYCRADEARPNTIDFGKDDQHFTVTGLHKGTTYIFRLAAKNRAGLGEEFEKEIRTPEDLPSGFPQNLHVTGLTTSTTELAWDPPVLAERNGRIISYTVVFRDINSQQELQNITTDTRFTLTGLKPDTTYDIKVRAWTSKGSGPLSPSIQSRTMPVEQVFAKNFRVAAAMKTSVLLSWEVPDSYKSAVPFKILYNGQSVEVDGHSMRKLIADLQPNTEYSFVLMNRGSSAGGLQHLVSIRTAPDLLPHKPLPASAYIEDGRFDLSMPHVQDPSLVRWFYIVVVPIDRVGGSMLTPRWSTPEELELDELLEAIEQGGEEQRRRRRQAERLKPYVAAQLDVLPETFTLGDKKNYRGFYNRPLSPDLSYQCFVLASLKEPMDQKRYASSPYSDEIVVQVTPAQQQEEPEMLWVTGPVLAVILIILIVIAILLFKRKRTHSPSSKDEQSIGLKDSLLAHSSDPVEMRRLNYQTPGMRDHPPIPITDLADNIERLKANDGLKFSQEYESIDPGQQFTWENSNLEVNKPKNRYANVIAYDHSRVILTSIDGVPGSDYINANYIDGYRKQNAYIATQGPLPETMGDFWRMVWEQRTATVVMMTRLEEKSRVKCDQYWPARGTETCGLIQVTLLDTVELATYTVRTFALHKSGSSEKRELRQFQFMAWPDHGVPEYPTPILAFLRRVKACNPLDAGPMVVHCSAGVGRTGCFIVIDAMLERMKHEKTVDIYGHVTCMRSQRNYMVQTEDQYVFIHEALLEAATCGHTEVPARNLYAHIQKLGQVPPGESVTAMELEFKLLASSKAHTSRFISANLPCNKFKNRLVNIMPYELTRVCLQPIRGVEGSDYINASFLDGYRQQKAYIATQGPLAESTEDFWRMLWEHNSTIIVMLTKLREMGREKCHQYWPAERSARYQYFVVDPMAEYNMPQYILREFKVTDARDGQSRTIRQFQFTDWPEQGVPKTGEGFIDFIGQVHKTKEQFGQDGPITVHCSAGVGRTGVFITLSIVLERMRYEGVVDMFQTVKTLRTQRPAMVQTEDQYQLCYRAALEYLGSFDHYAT
Assay [7] has as its target T6, Tyrosine-protein phosphatase non-receptor type 11 (Homo sapiens, UniProt Q06124).
T6 sequence (Q06124 whole entry): T3 sequence (whole entry)
In words: Inhibition of SHP2 (unknown origin) assessed as hydrolysis of pNPP to pNP after 30 mins.

Assay [8] is filed under the species Homo sapiens. The assay is described as follows: Selectivity ratio of IC50 for SHP1 (unknown origin) to IC50 for PTP1B (unknown origin).
In assay [9] the target is T7, Tyrosine-protein phosphatase non-receptor type 2 (Homo sapiens) (UniProt P17706).
T7 sequence (whole entry): T5 sequence (P17706 whole entry)
The assay is described as follows: Inhibition of TCPTP (unknown origin) assessed as hydrolysis of pNPP to pNP at 25 uM after 30 mins.

The target in assay [10] is T4, Tyrosine-protein phosphatase non-receptor type 6. The assay is described as follows: Inhibition of SHP1 (unknown origin) assessed as hydrolysis of pNPP to pNP at 25 uM after 30 mins.
The test system of a further assay is CHO. In words: Inhibition of PTP1B in CHO cells transfected with human IRbeta expressing plasmid assessed as increase in phosphorylation level of IRbeta at 15 uM and 30 uM incubated for 4 hrs prior to insulin stimulation for 10 mins by SDS-PAGE analysis. The format is cell-based. As to conditions: Cricetulus griseus.
The next assay relates to 3T3-L1. The assay is described as follows: Inhibition of PTP1B in IRbeta expressing mouse 3T3L1 cells assessed as increase in phosphorylation level of IRbeta at 15 uM and 30 uM prior to insulin stimulation by SDS-PAGE analysis. In kind it is cell-based.
For assay [11], the species on record is Homo sapiens. In words: Increase in insulin-stimulated glucose uptake in differentiated human skeletal muscle cells preincubated for 4 hrs followed by insulin stimulation for 10 mins and addition of 2-NBDG measured after 30 mins by 2-NBDG-based fluorescence analysis. The format is functional.
The test system of assay [12] is L6. In words: Increase in insulin stimulated glucose uptake in differentiated rat L6 myotube at 5 uM preincubated for 4 hrs followed by insulin stimulation for 10 mins and addition of 2-NBDG measured after 30 mins by 2-NBDG-based fluorescence analysis. The format is functional.
The species named for assay [13] is Homo sapiens. In words: Selectivity ratio of IC50 for TCPTP (unknown origin) to IC50 for PTP1B (unknown origin).
The subject of assay [14] is L6. The assay is described as follows: Increase in insulin stimulated glucose uptake in differentiated rat L6 myotube at 10 uM preincubated for 4 hrs followed by insulin stimulation for 10 mins and addition of 2-NBDG measured after 30 mins by 2-NBDG-based fluorescence analysis. The format is functional.

Structures are written as SMILES. The source made the active and inactive calls. The calls are words filed in the database; no cut-off is given here. Some results are limits rather than exact numbers.

T4 sequence (P29350 whole entry): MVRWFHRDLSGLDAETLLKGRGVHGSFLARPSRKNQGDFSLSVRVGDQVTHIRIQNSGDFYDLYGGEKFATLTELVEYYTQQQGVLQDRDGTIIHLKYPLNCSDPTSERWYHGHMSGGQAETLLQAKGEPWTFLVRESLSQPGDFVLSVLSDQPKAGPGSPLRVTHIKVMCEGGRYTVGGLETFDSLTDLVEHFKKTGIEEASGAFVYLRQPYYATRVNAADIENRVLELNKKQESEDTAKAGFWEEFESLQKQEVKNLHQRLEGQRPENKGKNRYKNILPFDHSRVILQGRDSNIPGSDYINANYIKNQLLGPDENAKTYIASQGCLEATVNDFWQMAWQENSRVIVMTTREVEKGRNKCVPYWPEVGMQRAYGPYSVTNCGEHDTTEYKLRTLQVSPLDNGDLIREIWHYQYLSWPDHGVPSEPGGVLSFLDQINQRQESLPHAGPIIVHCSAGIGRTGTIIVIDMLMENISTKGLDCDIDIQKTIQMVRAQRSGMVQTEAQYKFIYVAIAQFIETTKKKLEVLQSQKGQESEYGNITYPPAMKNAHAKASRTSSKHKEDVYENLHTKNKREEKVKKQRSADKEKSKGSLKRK

Turning to `COC(=O)CN(c1ccc(CN(c2ccc(CN(Cc3ccccc3)S(C)(=O)=O)cc2)S(=O)(=O)c2ccccc2)cc1)S(C)(=O)=O`, the IC50 in [1] worked out at 16100 nM.
Take `CCS(=O)(=O)N(CC(=O)OC)c1ccc(CN(c2ccc(CN(Cc3cccc(Cl)c3)S(C)(=O)=O)cc2)S(=O)(=O)Cc2ccccc2)cc1`: in assay [2], the inhibition was < 50%.
On to `CCCCOc1ccc(S(=O)(=O)N(Cc2ccc(N(CC(=O)OC)S(C)(=O)=O)cc2)c2ccc(NS(=O)(=O)Cc3ccccc3)cc2)cc1`, for which the IC50 in [1] is 1710 nM.
Same read-out and setting: the value for `CCCCOc1ccc(S(=O)(=O)N(Cc2ccc(N(CC(=O)OC)S(C)(=O)=O)cc2)c2ccc(CN(Cc3ccccc3)S(C)(=O)=O)cc2)cc1` was 896 nM.
`CCOc1ccc(S(=O)(=O)Nc2ccc(N(Cc3ccc(N(CC(=O)OC)S(=O)(=O)CC)cc3)S(=O)(=O)Cc3ccccc3)cc2)cc1`: the inhibition in [3] and in assay [6] was < 50% each time. Besides, the IC50 in assay [4] was determined as 11400 nM; in assay [1] it was 470 nM; in assay [5], 1920 nM.
With `COC(=O)CN(c1ccc(CN(c2ccc(N(Cc3ccccc3)S(C)(=O)=O)cc2)S(=O)(=O)Cc2ccccc2)cc1)S(C)(=O)=O`, the values for the IC50 in assay [7], in assay [4] and in assay [1] were 11600 nM, 9610 nM and 492 nM, respectively. Besides, in the assay filed under Homo sapiens [8], the Ratio IC50 worked out at 20. For the same compound, the inhibition in assay [9] and in assay [6] was < 50% each time.
`CCCOc1ccc(S(=O)(=O)N(Cc2ccc(N(CC(=O)OC)S(C)(=O)=O)cc2)c2ccc(CN(Cc3ccccc3)S(C)(=O)=O)cc2)cc1`: the IC50 in assay [1] is 902 nM.
Take `COC(=O)CN(c1ccc(CN(c2ccc(CN(Cc3ccc(C)cc3)S(C)(=O)=O)cc2)S(=O)(=O)Cc2ccccc2)cc1)S(C)(=O)=O`: the IC50 in assay [1] was 20300 nM.
On to `COC(=O)CN(c1ccc(CN(c2ccc(CN(Cc3ccccc3)S(C)(=O)=O)cc2)S(=O)(=O)c2ccc(OC)cc2)cc1)S(C)(=O)=O`, for which the inhibition in assay [3], in assay [10], in [9] and in assay [6] was < 50% throughout. Also, the IC50 in [1] came out at 346 nM.
For the compound `COC(=O)CN(c1ccc(CN(c2ccc(N(Cc3cccc(Cl)c3)S(C)(=O)=O)cc2)S(=O)(=O)Cc2ccccc2)cc1)S(C)(=O)=O`, the inhibition in [2] was < 50%.
Regarding `CCOc1ccc(S(=O)(=O)N(Cc2ccc(N(CC(=O)OC)S(C)(=O)=O)cc2)c2ccc(CN(Cc3ccccc3)S(C)(=O)=O)cc2)cc1`, the inhibition in assay [3] and in assay [6] was < 50% in each case. Also, the inhibition entry in the assay on CHO and in the assay on 3T3-L1 was “Active” throughout. In addition, the Activity entry was “Dose-dependent effect” in the assay listed under Homo sapiens [11], 23.3% in the assay on L6 [12] and 29.3% with L6 [14]. Moreover, the Ratio IC50 was determined as 8 in the assay filed under Homo sapiens [13] and 10 in the assay filed under Homo sapiens [8]. In addition, the IC50 in assay [4] is 2310 nM; in [1] it was 222 nM; in assay [5], 1860 nM.
Turning to `COC(=O)CN(c1ccc(CN(c2ccc(CN(Cc3ccccc3)S(C)(=O)=O)cc2)S(=O)(=O)Cc2ccccc2)cc1)S(C)(=O)=O`, the inhibition in [2] was < 50%.
